Each structure is given as a SMILES string.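 The compound was tested at five concentrations on cells cultured in 96-well plates, with a 48-hour exposure period. GI50 marks 50% less growth.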 Active and inactive are the calls of the source. Cut-off read from the data, not from the text of the source: active = GI50 up to about 1.1 µM and inactive = higher. A value given as a limit tells only on which side of the number the result lay.

What all share (test): NCI-60 cell line screen, 48 h
In assay [1] the test system is A549.
Assay [2] relates to UACC-257.
In assay [3] the test system is OVCAR-3.
Assay [4] relates to RXF 393.
Assay [5] relates to SW-620.
The test system of assay [6] is KM12.
Assay [7] deals with HCT-116.
For assay [8], the system named is HOP-62.
The test system of assay [9] is K562.
For assay [10], the system named is OVCAR-5.
In assay [11] the test system is SK-MEL-28.
For assay [12], the system named is A498.
Assay [13] deals with SF-295.
The subject of assay [14] is HL-60.
In assay [15] the test system is RPMI-8226.
For assay [16], the system named is SK-OV-3.
Assay [17] concerns CCRF-CEM.
The subject of assay [18] is MDA-N.
In assay [19] the test system is NCI-H23.

With `CCOC(=O)c1nc2ccc(C(F)(F)F)cc2nc1Oc1cc(OC)cc(OC)c1`, the GI50 was > 100 µM (inactive) in assay [1]; > 100 µM (inactive) in assay [2]; > 100 µM (inactive) in [3]; > 100 µM (inactive) in [4]; > 100 µM (inactive) in [5]; 36.8 µM (inactive) in assay [6]. Besides, the GI50 in assay [7] is > 100 µM (inactive); in [8], 65.6 µM (inactive); in assay [9], > 100 µM (inactive); in [10] it was > 100 µM (inactive); in [11], > 100 µM (inactive); in assay [12], > 100 µM (inactive). In addition, the GI50 is 78.3 µM (inactive) in assay [13]; > 100 µM (inactive) in assay [14]; > 100 µM (inactive) in assay [15]; > 100 µM (inactive) in assay [16]; > 100 µM (inactive) in assay [17]; > 100 µM (inactive) in assay [18].

As for `CC1(C)C2CC(=O)C1(C)C(O)C2Br` (stereo not drawn), the GI50 in [1], in assay [3], in assay [4], in assay [19], in [5] and in assay [6] was > 100 µM (inactive) each time. Further, the GI50 in assay [7], in assay [8], in assay [9], in assay [10], in assay [11] and in [12] was > 100 µM (inactive) each time. Besides, the GI50 in assay [13], in assay [14], in [16], in [17] and in assay [18] was > 100 µM (inactive) throughout.

Turning to `C[N+](C)(C)/C=N\c1cccc2nsnc12`, the GI50 in assay [1], in assay [2], in assay [3], in assay [4], in [19] and in assay [7] was > 100 µM (inactive) throughout. The GI50 in assay [8], in [9], in [10], in [11], in [12] and in assay [13] was > 100 µM (inactive) throughout. Further, the GI50 in assay [14], in [15], in [16], in assay [17] and in [18] was > 100 µM (inactive) throughout.

In the case of `COc1ccc(OC)c2cc(Cc3ccc(N(C)C)cc3)c(=O)c(Cc3ccc(N(C)C)cc3)cc12`, the GI50 in assay [1] is 57 µM (inactive); in [2] it was > 100 µM (inactive); in [3] it was > 100 µM (inactive); in assay [4], > 100 µM (inactive); in assay [19], > 100 µM (inactive); in assay [5] it was > 100 µM (inactive). The GI50 in assay [6] is > 100 µM (inactive); in assay [7], > 100 µM (inactive); in [8], 58.6 µM (inactive); in [9], 34.4 µM (inactive); in [10], > 100 µM (inactive); in [11] it was > 100 µM (inactive). Further, the GI50 in assay [12] is 26.4 µM (inactive); in assay [13] it was > 100 µM (inactive); in [15] it was 22.4 µM (inactive); in [16], > 100 µM (inactive); in assay [17], > 100 µM (inactive); in assay [18], > 100 µM (inactive).

As to `N#CCC(=O)c1cc(OCc2cc(OCc3ccc(Br)cc3)cc(OCc3ccc(Br)cc3)c2)cc(OCc2cc(OCc3ccc(Br)cc3)cc(OCc3ccc(Br)cc3)c2)c1`, the GI50 in assay [1], in assay [2], in assay [3], in assay [19], in assay [6] and in assay [7] was > 100 µM (inactive) each time. Also, the GI50 in assay [8] is > 100 µM (inactive); in assay [9], 0.264 µM (active); in assay [10] it was > 100 µM (inactive); in assay [11], > 100 µM (inactive); in assay [12], > 100 µM (inactive); in [13], > 100 µM (inactive). For the same molecule, the GI50 in [15], in [16] and in assay [18] was > 100 µM (inactive) throughout.

Turning to `O=C1Oc2ccccc2C(=O)/C1=C/N1C(=O)N/C(=C\c2cccc(O)c2)C1=O`, the GI50 in assay [1] was > 100 µM (inactive); in assay [2], > 100 µM (inactive); in [3] it was > 100 µM (inactive); in assay [19] it was 84.9 µM (inactive); in assay [5], 83.4 µM (inactive); in assay [6] it was 62.5 µM (inactive). Further, the GI50 in assay [7] was 76 µM (inactive); in assay [8], 69.7 µM (inactive); in assay [10], > 100 µM (inactive); in assay [11], > 100 µM (inactive); in [13], 67.3 µM (inactive); in assay [14], 6.87 µM (inactive). In addition, the results for the GI50 in assay [16] and in assay [18] were > 100 µM (inactive) and 63.8 µM (inactive), respectively.

Take `CC(C)(C)c1ccc2c(c1)C#Cc1cc(C(C)(C)C)ccc1OCCCO2`: the GI50 in assay [1], in assay [2], in assay [3], in [4], in assay [19] and in assay [5] was > 100 µM (inactive) throughout. Moreover, the GI50 in assay [6], in [7], in assay [8], in assay [9], in assay [10] and in assay [11] was > 100 µM (inactive) each time. Moreover, the GI50 in assay [12], in assay [13], in assay [14], in [15], in [17] and in assay [18] was > 100 µM (inactive) in each case.

Take `Cc1ccc(C)c(NC(=O)C(=O)C2C(=O)C3=C(CC2(C)C)Nc2ccccc2S3)c1` (stereo not drawn): the GI50 in assay [1] was > 100 µM (inactive); in assay [2] it was > 100 µM (inactive); in assay [3] it was 55.6 µM (inactive); in assay [4], 60.5 µM (inactive); in assay [19] it was > 100 µM (inactive); in assay [5], > 100 µM (inactive). The GI50 in assay [6] is > 100 µM (inactive); in assay [7], > 100 µM (inactive); in assay [8], 31.6 µM (inactive); in assay [10], > 100 µM (inactive); in assay [11] it was > 100 µM (inactive); in assay [13] it was 58.9 µM (inactive). For the same molecule, the GI50 is > 100 µM (inactive) in assay [14], 60.4 µM (inactive) in assay [16], 70.6 µM (inactive) in assay [17] and > 100 µM (inactive) in assay [18].

Values taken from ChEMBL document CHEMBL1201862, “PubChem BioAssay data set” (2004).
